Columns and labels:
COX = settings: Haanen, 2001; cited from earlier work
HepG2 liver cancer cells = assay: PARP cleavage and caspase-8 activation with TNFα by immunoblotting; assay type: cell-based; settings: HepG2 cells, SR11237 1 μM, 1 hr pretreatment
Description: ZR-75-1 cells were treated with TNFα and/or Sulindac (75 μM) or K-80003 (50 μM) for 6 hr and analyzed by immunoblotting.
HepG2 cells cultured in medium with 1% FBS were treated with SR11237 (1 μM) for 1 hr, then TNFα (10 ng/ml) and/or Sulindac (75 μM) for 4 hr, and analyzed by immunoblotting. HepG2 cells transfected with control or RXRα siRNA were treated with TNFα and/or Sulindac and analyzed by immunoblotting.

| SMILES | COX-inhibiting activity (COX) | suppression of the apoptotic effect of Sulindac/TNFα combination (HepG2 liver cancer cells) |
| --- | --- | --- |
| CC1=C(CC(=O)O)c2cc(F)ccc2/C1=C\c1ccc(S(C)(=O)=O)cc1 [sulindac sulfone] | no COX-inhibiting activity |  |
| CC1=C(CC(=O)O)c2cc(F)ccc2/C1=C/c1ccc([S+](C)[O-])cc1 (stereo not drawn) [sulindac sulfoxide] | no COX-inhibiting activity |  |
| CC1(C)CCC(C)(C)c2cc(C3(c4ccc(C(=O)O)cc4)OCCO3)ccc21 [SR11237] |  | partially suppressed |

From US10087156B2, “Methods and compositions related to retinoid receptor-selective pathway” (Sanford Burnham Prebys Medical Discovery Institute, priority 2010, dated 2018)
